# Measured values published in PubChem BioAssay (NCI).
# Where “and” joins values, the source holds several entries; their conditions need not be identical. Equal entries are not always repeated.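 Where inhibition never reached the appropriate level, the endpoint shown equals the highest concentration tested. Otherwise, values were interpolated linearly from a five-concentration, 48-hour dose response in 96-well plates. The concentration for 50% growth inhibition is given as GI50. TGI: concentration producing complete growth inhibition.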
# Tests used:
# Assay in all cases: NCI-60 cell line screen, 48 h
# EKVX NSCLC = system: EKVX NSCLC
# HCC-2998 colon = system: HCC-2998 colon
# KM12 colon = system: KM12 colon
# NCI-H23 lung = system: NCI-H23 lung
# NCI-H460 lung = system: NCI-H460 lung
# OVCAR-4 ovarian = system: OVCAR-4 ovarian
# RPMI-8226 leukemia = system: RPMI-8226 leukemia
# RXF 393 renal = system: RXF 393 renal
# SK-MEL-2 melanoma = system: SK-MEL-2 melanoma
# SNB-19 CNS = system: SNB-19 CNS
SMILES,TGI (EKVX NSCLC),TGI (HCC-2998 colon),TGI (KM12 colon),TGI (NCI-H23 lung),TGI (NCI-H460 lung),TGI (OVCAR-4 ovarian),TGI (RPMI-8226 leukemia),TGI (RXF 393 renal),TGI (SK-MEL-2 melanoma),TGI (SNB-19 CNS),GI50 (EKVX NSCLC),GI50 (HCC-2998 colon),GI50 (KM12 colon),GI50 (NCI-H23 lung),GI50 (NCI-H460 lung),GI50 (OVCAR-4 ovarian),GI50 (RPMI-8226 leukemia),GI50 (RXF 393 renal),GI50 (SK-MEL-2 melanoma),GI50 (SNB-19 CNS)
CCOC(=O)C1=C(NC)OC/C1=N\NC(=O)c1ccccc1O,> 100 µM,> 100 µM,> 100 µM,54.9 µM,> 100 µM,83.5 µM,> 100 µM,> 100 µM,48.2 µM,> 100 µM,–,–,–,–,–,–,–,–,–,–
C=C1CC[C@@H]2[C@](C)(COC(C)=O)[C@@H](O)CC[C@@]2(C)[C@@H]1COc1ccc2ccc(=O)oc2c1,> 100 µM,> 100 µM,> 100 µM,> 100 µM,> 100 µM,> 100 µM,> 100 µM,58.9 µM,> 100 µM,> 100 µM,> 100 µM,> 100 µM,> 100 µM,> 100 µM,> 100 µM,> 100 µM,26.3 µM,14.7 µM,> 100 µM,> 100 µM
Cc1ccc(C(=O)Nc2cccc(C(F)(F)F)c2)cc1Nc1nc(-c2cccnc2)nc2c1cnn2C,21.3 µM and > 10 µM,3.35 µM and 2.62 µM,17.2 µM and 8.28 µM,12.8 µM and 9.54 µM,12.5 µM and 7.19 µM,30.3 µM and > 10 µM,6.04 µM,4.24 µM and 3.66 µM,5.03 µM and 2.07 µM,17.1 µM and > 10 µM,3.22 µM and 2.59 µM,1.11 µM and 0.632 µM,2.62 µM and 0.686 µM,1.81 µM and 1.3 µM,2.84 µM and 2.54 µM,4.56 µM and 2.59 µM,1.63 µM,1.47 µM and 1.45 µM,0.721 µM and 0.367 µM,4.16 µM and 3.18 µM
O=C(O)C1(P(=O)(O)O)CC1,> 100 µM,> 100 µM,> 100 µM,> 100 µM,> 100 µM,> 100 µM,> 100 µM,> 100 µM,> 100 µM,> 100 µM,–,–,–,–,–,–,–,–,–,–
CCN1CCC(CCOC)(CN2c3ccccc3Sc3ccc(Cl)cc32)C1 (centres undefined),5.91 µM,3.2 µM,3.43 µM,6.16 µM,3.58 µM,8.66 µM,5.7 µM,4.03 µM,4.74 µM,7.31 µM,2.04 µM,1.63 µM,1.79 µM,2.2 µM,1.9 µM,2.72 µM,2.52 µM,1.77 µM,2.54 µM,2.65 µM
COc1cccc(C=Nc2cc(C)ccn2)c1O.COc1cccc(C=Nc2cc(C)ccn2)c1O.[Cu],71.5 µM,37.9 µM,52.5 µM,49.4 µM,44 µM,> 100 µM,> 100 µM,34.8 µM,53.2 µM,60.5 µM,25.4 µM,16.2 µM,18.5 µM,19 µM,18.3 µM,25.4 µM,17.6 µM,11.9 µM,21.1 µM,19.7 µM
COc1cc(C(=O)C/C(CCC(=O)Nc2ccccc2[N+](=O)[O-])=N\NC(=O)CC#N)ccc1O,> 100 µM,> 100 µM,> 100 µM,> 100 µM,> 100 µM,> 100 µM,> 100 µM,> 100 µM,> 100 µM,> 100 µM,–,–,–,–,–,–,–,–,–,–
COc1ccc2cc(-c3ccoc(=O)c3-c3cc(OC)c(OC)c(OC)c3)ccc2c1,> 100 µM,0.426 µM,–,–,> 32 µM,> 100 µM,13.4 µM,> 100 µM,> 100 µM,> 100 µM,0.566 µM,0.0744 µM,0.0238 µM,0.141 µM,0.0526 µM,1.16 µM,0.218 µM,0.028 µM,0.0752 µM,0.125 µM
CC(=O)OC1CCn2nnc(CO[Si](C)(C)C(C)(C)C)c21 (centres undefined),> 100 µM,> 100 µM,> 100 µM,> 100 µM,> 100 µM,> 100 µM,> 100 µM,> 100 µM,> 100 µM,> 100 µM,–,–,–,–,–,–,–,–,–,–
CCCCNCC(=O)O[C@]1(CC)C(=O)OCc2c1cc1n(c2=O)Cc2cc3ccccc3nc2-1,> 100 µM,8.76 µM,6.55 µM,0.877 µM,1.68 µM,20.4 µM,5.77 µM,2.15 µM,8.76 µM,> 61.1 µM,–,–,–,–,–,–,–,–,–,–
Nc1ncnc2[nH]ncc12,> 79.9 µM,4.85 µM,18.3 µM,38.1 µM,> 100 µM,37.9 µM,14.3 µM,> 28.6 µM,2.91 µM,> 100 µM,2.6 µM,0.251 µM,1.26 µM,1.59 µM,2.1 µM,0.277 µM,0.378 µM,0.86 µM,0.369 µM,13.8 µM
C=CC(=O)Nc1cccc(C)c1Nc1cc(-c2cccnc2Cc2c(C)c(OC)cc(OC)c2C)ncn1,> 100 µM,30.6 µM,34.2 µM,47.3 µM,31.7 µM,> 100 µM,24.9 µM,7.89 µM,32.4 µM,43.1 µM,28.8 µM,16 µM,13.4 µM,12.7 µM,4.91 µM,20.6 µM,3.37 µM,2.52 µM,12.6 µM,7.04 µM
O=C1C=C(Br)c2c(-c3ccccc3)oc3cccc1c23,> 100 µM,> 100 µM,> 100 µM,> 100 µM,> 100 µM,> 100 µM,> 79 µM,> 83.9 µM,> 100 µM,> 100 µM,–,–,–,–,–,–,–,–,–,–
CCC1CN2CCc3cc(OC)c(OC)cc3C2CC1CC1c2cc(OC)c(OC)cc2CCN1C(=O)C1CCCN1C(=O)OCc1ccccc1 (centres undefined),43.3 µM,30 µM,30.1 µM,32.7 µM,30.2 µM,27.4 µM,36.5 µM,22.4 µM,33.6 µM,73.5 µM,–,–,–,–,–,–,–,–,–,–
CCOC(=O)C1Oc2ccc([N+](=O)[O-])c3c2C1(O)CCC3 (centres undefined),> 100 µM,> 100 µM,> 100 µM,> 100 µM,> 100 µM,> 100 µM,> 100 µM,> 100 µM,> 100 µM,> 100 µM,–,–,–,–,–,–,–,–,–,–
Cc1ccc(NC(=O)/C=C/c2ccccc2)c(C(N)=O)c1,> 100 µM,42.5 µM,35.5 µM,> 100 µM,25.9 µM,> 100 µM,> 100 µM,8.16 µM,31.6 µM,> 100 µM,4.78 µM,5.38 µM,2.44 µM,4.46 µM,3.46 µM,9.17 µM,2.89 µM,2.67 µM,4.75 µM,5.81 µM
C[C@]12CCC3[C@@H](CC[C@@H]4c5nonc5CC[C@]34C)C1CCC(=O)N2 (some centres undefined),> 100 µM,> 100 µM,> 100 µM,> 100 µM,> 100 µM,> 100 µM,> 100 µM,> 100 µM,> 100 µM,> 100 µM,–,> 100 µM,–,–,–,–,–,–,–,–
O=C(C1CCCCC1)[C@@H]1[C@]2(C(=O)NC3CCCCC32)[C@@H]2CCCN2[C@@]12C(=O)NC1CCC(Cl)CC12 (some centres undefined),217 µM,293 µM,273 µM,274 µM,308 µM,218 µM,103 µM,301 µM,321 µM,299 µM,69.9 µM,135 µM,130 µM,119 µM,134 µM,64.4 µM,32.6 µM,113 µM,147 µM,148 µM
O=S(=O)(NCCNC/C=C/c1ccc(Br)cc1)c1cccc2cnccc12,22.9 µM and 20.5 µM,10 µM and 14 µM,23.3 µM and 28.8 µM,25.8 µM and 27.5 µM,26.2 µM and 31.6 µM,18.6 µM and 23.6 µM,25.3 µM and 35.2 µM,15.6 µM and 22.3 µM,24.4 µM and 34 µM,27 µM and 34.1 µM,5.25 µM and 6.38 µM,3.18 µM and 3.91 µM,9.78 µM and 13.7 µM,11.3 µM and 13.1 µM,9.76 µM and 15.4 µM,5.51 µM and 7.36 µM,5.2 µM and 12 µM,3.37 µM and 9.08 µM,11.2 µM and 16.8 µM,13.1 µM and 17.7 µM
N#CC(C(=O)CCC(=O)Nc1cccc(Cl)c1)c1ccccc1 (centres undefined),> 100 µM,> 100 µM,> 100 µM,> 100 µM,> 100 µM,> 100 µM,> 100 µM,> 100 µM,> 100 µM,> 100 µM,–,–,–,–,–,–,–,–,–,–
Cc1cc2c3ccc(C)[n+](C)c3ccc2n1C,13.6 µM,19.8 µM,3.46 µM,29.2 µM,28.8 µM,30.1 µM,23.3 µM,44.2 µM,25 µM,14 µM,0.456 µM,2.6 µM,0.723 µM,2.04 µM,3.9 µM,4.18 µM,1.32 µM,4.01 µM,7.56 µM,2 µM
O=C(NN1C(=O)CSC12CCCCC2)c1[nH]c2ccc(F)cc2c1-c1ccccc1,> 100 µM,92.5 µM,32.6 µM,50.9 µM,77.7 µM,70.9 µM,37 µM,29.7 µM,> 100 µM,44.2 µM,83 µM,34.8 µM,17.1 µM,18.4 µM,26.6 µM,22.9 µM,15.7 µM,14.6 µM,34.6 µM,19.8 µM
COc1ccc(C(OCC2OC(n3ccc(NC(=O)c4ccccc4)nc3=O)C(O)C2O)(c2ccccc2)c2ccccc2)cc1 (centres undefined),6.1 µM,12.6 µM,38.5 µM,3 µM,4.02 µM,6.04 µM,4.64 µM,10.8 µM,6.68 µM,9 µM,–,–,–,–,–,–,–,–,–,–
O=C1C(=O)c2c(nc3ccc(Cl)cn23)-c2ccccc21,3.38 µM,3.96 µM,3.89 µM,1.47 µM,2.31 µM,0.463 µM,2.88 µM,5.61 µM,1.61 µM,3 µM,1.65 µM,2.06 µM,1.78 µM,0.324 µM,0.538 µM,0.207 µM,0.35 µM,0.564 µM,0.432 µM,1.32 µM
O[C@H]1CO[C@H]2[C@@H]1OC[C@@H]2Oc1ccc(Nc2ccnc(Nc3ccc(O[C@H]4CO[C@H]5[C@@H]4OC[C@@H]5O)c(Cl)c3)n2)cc1Cl,8.86 µM,6.55 µM,3.48 µM,4.6 µM,3.05 µM,5.24 µM,3.24 µM,3.8 µM,5.02 µM,7.98 µM,2.4 µM,2.27 µM,1.36 µM,1.49 µM,1.4 µM,1.54 µM,1.05 µM,1.5 µM,1.71 µM,2.75 µM
C=C1COC(/C=C(\C)CC/C=C(\C)CCl)C1 (centres undefined),> 100 µM,> 100 µM,> 100 µM,> 100 µM,> 100 µM,> 100 µM,> 100 µM,> 100 µM,> 100 µM,> 100 µM,–,–,–,–,–,–,–,–,–,–
